Laboratory results taken from patent US20030229067A1, “Pyrrolopyrimidine A2b selective antagonist compounds, their synthesis and use” (priority 2001, published 2003).

How the values were obtained:
human A2B receptor = target: T1, human A2B receptor (Homo sapiens, UniProt P29275); assay: Radioligand binding assay ([3H]-DPCPX competition), membranes of HEK293 stably expressing human A2B receptor; conditions: fold selectivity A2B over A1, A2A and A3 receptors, binding assays
T1 construct: expressed in transfected cells; membranes prepared from the cells
T1 sequence (P29275 1-332): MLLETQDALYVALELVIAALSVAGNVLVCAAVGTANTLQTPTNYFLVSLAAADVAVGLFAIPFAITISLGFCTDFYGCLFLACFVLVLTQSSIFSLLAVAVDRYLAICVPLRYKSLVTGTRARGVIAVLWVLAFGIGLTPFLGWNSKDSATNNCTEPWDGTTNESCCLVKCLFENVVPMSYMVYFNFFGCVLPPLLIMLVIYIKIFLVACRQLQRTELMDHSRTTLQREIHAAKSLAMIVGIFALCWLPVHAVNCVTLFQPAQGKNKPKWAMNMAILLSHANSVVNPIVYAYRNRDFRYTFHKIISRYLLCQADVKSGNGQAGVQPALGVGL
Description: Materials. [^3H]—DPCPX [cyclopentyl-1,3-dipropylxanthine] (120 Ci/mmol) was purchased from New England Nuclear (Boston, Mass.). The adenosine deaminase and complete protease inhibitor cocktail tablets were purchased from Boehringer Mannheim Corp. (Indianapolis, Ind.). Cell culture reagents were from Life Technologies (Grass Island, N.Y.) except for serum that was from Hyclone (Logan, Utah).
Cell line. HEK293 stably expressing the human A2B receptor were used for radioligand binding assays. Cells were grown in DMEM Glutamax containing 10% FBS, 0.2 mg/ml G418 at 37° C. in 5% CO2/95% atmosphere.
Membrane Preparation. Cells were washed with cold PBS buffer twice, scraped off the plates, and centrifuged at 1000×g for 5 minutes. Cells were homogenized with ice-cold buffer of 5 mM Tris, pH 7.4, 5 mM EDTA, 5 mM EGTA, protease inhibitor cocktail tablets and incubated for 10 min on ice. The homogenate was centrifuged at 32,000×g for 30 min. The membranes were resuspended in buffer of 50 mM Tris, pH 7.4, 0.6 mM EDTA, 5 mM MgCl2, stored at −80° C. until use. Protein concentration was determined by the methods of Bradford.
Radioligand binding assay. Membranes were homogenized in buffer containing 10 mM HEPES-KOH, pH 7.4 containing 1.0 mM EDTA; 2 U/ml adenosine deaminase; and 0.1 mM Benzamidine and incubated for 30 min at room temperature. Dissociation constants of radioligand (Kd values) and maximum binding sites (Bmax) were determined in saturation binding experiments. Saturation binding assays were carried out in a reaction mixture containing 50 μl of membrane suspension, 25 μl of 4% DMSO, 25 μl of increasing amounts of radioligand, [^3H]—DPCPX (final concentration 1-200 nM). […] Nonspecific binding was measured in the presence of […] NECA. Compounds were dissolved in
DMSO and then diluted with 4% DMSO; the final maximum DMSO concentrations were 1%. […] Reactions were terminated by rapid filtration over GF/C filters using a cell harvester. The filters were washed ten times with 0.4 ml of ice-cold buffer containing 10 mM HEPES-KOH, pH 7.4. The filters were dried, covered with scintillation fluid and counted with a TopCount.

- selectivity for the A2B receptor relative to the A1, A2A, and A3 receptor (human A2B receptor): 57 ×
- melting point: 201 to 202 °C
Compound: COC1(c2ccccc2Cl)CCN(C(=O)c2cc3c(NCCNC(C)=O)nc(-c4ccccc4)nc3[nH]2)CC1 [26.42, N-(2-{6-[4-(2-Chlorophenyl)-4-methoxypiperidine-1-carbonyl]-2-phenyl-7H-pyrrolo[2,3-d]pyrimidin-4-ylamino}-ethyl)-acetamide]
